Experimental data as given in US11505543B2, “4-oxo-3,4-dihydroquinazoline compounds as inhibitors of human immunodeficiency virus replication” (VIIV HEALTHCARE UK (NO.5) LIMITED, priority 2018, dated 2022).

What was measured:
[1] = system: recombinant NL4-3 virus (nef section replaced with Renilla luciferase gene) in MT-2 cells; test: HIV cell culture assay (antiviral activity, luciferase readout); format: cell-based; settings: Renilla, NL43, MT-2 cells infected for 4-5 days with recombinant NL4-3 Renilla luciferase virus, serial dilutions of compound
Method in brief: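 EC50 was derived by median-effect curve fitting of luciferase activity. The signal comes from MT-2 cells infected for 4–5 days with 293T-produced NL4-3 reporter virus, nef partly replaced by Renilla luciferase, in the presence of serially diluted compound.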

[2] = Compound cytotoxicity, XTT-based colorimetric assay; format: cell-based; settings: human, uninfected MT2 cells, day 4, XTT
Method in brief: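 Run under the antiviral-assay protocol but without virus. Viability was read on day 4 and CC50 values were derived from the readout.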

SMILES | EC50 [1] [nM] | CC50 at 4 day [2] [nM]
O=C(Cn1nc(C(F)F)c2c1C(F)(F)[C@@H]1C[C@H]21)N[C@@H](Cc1cc(F)cc(F)c1)c1nc2cc(-c3cc(F)ccc3F)ccc2c(=O)n1-c1ccc(S(=O)(=O)N2CCOCC2)cc1 [Example 29, 2-((3bS,4aR)-3-(difluoromethyl)-5,5-difluoro-3b,4,4a,5-tetrahydro-1H-cyclopropa[3,4]cyclopenta[1,2-c]pyrazol-1-yl)-N-((S)-2-(3,5-difluorophenyl)-1-(7-(2,5-difluorophenyl)-3-(4-(morpholinosulfonyl)phenyl)-4-oxo-3,4-dihydroquinazolin-2-yl)ethyl)acetamide] | 2.9 | > 1000
COc1ccc(-c2ccc3c(=O)n(-c4ccc(S(=O)(=O)N5CCOCC5)cc4)c([C@H](Cc4cc(F)cc(F)c4)NC(=O)Cn4ccc(C5CC5)n4)nc3c2)cn1 [Example 32, (S)-2-(3-cyclopropyl-1H-pyrazol-1-yl)-N-(2-(3,5-difluorophenyl)-1-(7-(6-methoxypyridin-3-yl)-3-(4-(morpholinosulfonyl)phenyl)-4-oxo-3,4-dihydroquinazolin-2-yl)ethyl)acetamide] | 5.8 | > 1000
O=C(Cn1ccc(C2CC2)n1)N[C@@H](Cc1cc(F)cc(F)c1)c1nc2cc(-c3c(F)cccc3F)ccc2c(=O)n1-c1ccc(S(=O)(=O)N2CCOCC2)cc1 [Example 37, (S)-2-(3-cyclopropyl-1H-pyrazol-1-yl)-N-(2-(3,5-difluorophenyl)-1-(7-(2,6-difluorophenyl)-3-(4-(morpholinosulfonyl)phenyl)-4-oxo-3,4-dihydroquinazolin-2-yl)ethyl)acetamide] | 8.8 | > 1000
O=C(Cn1ccc(C2CC2)n1)N[C@@H](Cc1cc(F)cc(F)c1)c1nc2cc(-c3ccccc3Oc3ccccc3)ccc2c(=O)n1-c1ccc(S(=O)(=O)N2CCOCC2)cc1 [Example 42, (S)-2-(3-cyclopropyl-1H-pyrazol-1-yl)-N-(2-(3,5-difluorophenyl)-1-(3-(4-(morpholinosulfonyl)phenyl)-4-oxo-7-(2-phenoxyphenyl)-3,4-dihydroquinazolin-2-yl)ethyl)acetamide] | 54 | > 1000
Cc1cccc(C)c1-c1ccc2c(=O)n(-c3ccc(S(=O)(=O)N4CCOCC4)cc3)c([C@H](Cc3cc(F)cc(F)c3)NC(=O)Cn3ccc(C4CC4)n3)nc2c1 [Example 49, (S)-2-(3-cyclopropyl-1H-pyrazol-1-yl)-N-(2-(3,5-difluorophenyl)-1-(7-(2,6-dimethylphenyl)-3-(4-(morpholinosulfonyl)phenyl)-4-oxo-3,4-dihydroquinazolin-2-yl)ethyl)acetamide] | 30 | > 1000
Cc1cc(Cl)ccc1-c1ccc2c(=O)n(-c3ccc(S(=O)(=O)N4CCOCC4)cc3)c([C@H](Cc3cc(F)cc(F)c3)NC(=O)Cn3ccc(C4CC4)n3)nc2c1 [Example 50, (S)-N-(1-(7-(4-chloro-2-methylphenyl)-3-(4-(morpholinosulfonyl)phenyl)-4-oxo-3,4-dihydroquinazolin-2-yl)-2-(3,5-difluorophenyl)ethyl)-2-(3-cyclopropyl-1H-pyrazol-1-yl)acetamide] | 70 | > 1000
COc1cccc(-c2ccc3c(=O)n(-c4ccc(S(=O)(=O)N5CCOCC5)cc4)c([C@H](Cc4cc(F)cc(F)c4)NC(=O)Cn4ccc(C5CC5)n4)nc3c2)n1 [Example 55, (S)-2-(3-cyclopropyl-1H-pyrazol-1-yl)-N-(2-(3,5-difluorophenyl)-1-(7-(6-methoxypyridin-2-yl)-3-(4-(morpholinosulfonyl)phenyl)-4-oxo-3,4-dihydroquinazolin-2-yl)ethyl)acetamide] | 8.7 | > 1000
O=C(Cn1nc(C(F)F)c2c1C(F)(F)[C@@H]1C[C@H]21)N[C@@H](Cc1cc(F)cc(F)c1)c1nc2cc(-c3ccncc3)ccc2c(=O)n1-c1ccc(S(=O)(=O)N2CCOCC2)cc1 [Example 69, 2-((3bS,4aR)-3-(difluoromethyl)-5,5-difluoro-3b,4,4a,5-tetrahydro-1H-cyclopropa[3,4]cyclopenta[1,2-c]pyrazol-1-yl)-N-((S)-2-(3,5-difluorophenyl)-1-(3-(4-(morpholinosulfonyl)phenyl)-4-oxo-7-(pyridin-4-yl)-3,4-dihydroquinazolin-2-yl)ethyl)acetamide] | 1 | > 1000
O=C(Cn1ccc(C2CC2)n1)N[C@@H](Cc1cc(F)cc(F)c1)c1nc2cc(-c3cccc(F)c3F)ccc2c(=O)n1-c1ccc(S(=O)(=O)N2CCOCC2)cc1 [Example 74, (S)-2-(3-cyclopropyl-1H-pyrazol-1-yl)-N-(2-(3,5-difluorophenyl)-1-(7-(2,3-difluorophenyl)-3-(4-(morpholinosulfonyl)phenyl)-4-oxo-3,4-dihydroquinazolin-2-yl)ethyl)acetamide] | 16 | > 1000
Cc1cccc(C)c1-c1ccc2c(=O)n(-c3ccc(S(=O)(=O)N4CCOCC4)cc3)c([C@H](Cc3cc(F)cc(F)c3)NC(=O)Cn3nc(C(F)F)c4c3C(F)(F)[C@@H]3C[C@H]43)nc2c1 [Example 77, 2-((3bS,4aR)-3-(difluoromethyl)-5,5-difluoro-3b,4,4a,5-tetrahydro-1H-cyclopropa[3,4]cyclopenta[1,2-c]pyrazol-1-yl)-N-((S)-2-(3,5-difluorophenyl)-1-(7-(2,6-dimethylphenyl)-3-(4-(morpholinosulfonyl)phenyl)-4-oxo-3,4-dihydroquinazolin-2-yl)ethyl)acetamide] | 4.2 | > 1000
O=C(Cn1nc(C(F)F)c2c1C(F)(F)[C@@H]1C[C@H]21)N[C@@H](Cc1cc(F)cc(F)c1)c1nc2cc(-c3ccc(Cl)cc3Cl)ccc2c(=O)n1-c1ccc(S(=O)(=O)N2CCOCC2)cc1 [Example 80, N-((S)-1-(7-(2,4-dichlorophenyl)-3-(4-(morpholinosulfonyl)phenyl)-4-oxo-3,4-dihydroquinazolin-2-yl)-2-(3,5-difluorophenyl)ethyl)-2-((3bS,4aR)-3-(difluoromethyl)-5,5-difluoro-3b,4,4a,5-tetrahydro-1H-cyclopropa[3,4]cyclopenta[1,2-c]pyrazol-1-yl)acetamide] | 8 | > 1000
O=C(Cn1ccc(C2CC2)n1)N[C@@H](Cc1cc(F)cc(F)c1)c1nc2cc(-c3ccc(Cl)cc3Cl)ccc2c(=O)n1-c1ccc(S(=O)(=O)N2CCOCC2)cc1 [Example 81, (S)-2-(3-cyclopropyl-1H-pyrazol-1-yl)-N-(1-(7-(2,4-dichlorophenyl)-3-(4-(morpholinosulfonyl)phenyl)-4-oxo-3,4-dihydroquinazolin-2-yl)-2-(3,5-difluorophenyl)ethyl)acetamide] | 56 | > 1000
COc1cccc(OC)c1-c1ccc2c(=O)n(-c3ccc(S(=O)(=O)N4CCOCC4)cc3)c([C@H](Cc3cc(F)cc(F)c3)NC(=O)Cn3nc(C(F)F)c4c3C(F)(F)[C@@H]3C[C@H]43)nc2c1 [Example 83, 2-((3bS,4aR)-3-(difluoromethyl)-5,5-difluoro-3b,4,4a,5-tetrahydro-1H-cyclopropa[3,4]cyclopenta[1,2-c]pyrazol-1-yl)-N-((S)-2-(3,5-difluorophenyl)-1-(7-(2,6-dimethoxyphenyl)-3-(4-(morpholinosulfonyl)phenyl)-4-oxo-3,4-dihydroquinazolin-2-yl)ethyl)acetamide] | 5 | > 1000
Cc1cc(F)ccc1-c1ccc2c(=O)n(-c3ccc(S(=O)(=O)N4CCOCC4)cc3)c([C@H](Cc3cc(F)cc(F)c3)NC(=O)Cn3ccc(C4CC4)n3)nc2c1 [Example 102, (S)-2-(3-cyclopropyl-1H-pyrazol-1-yl)-N-(2-(3,5-difluorophenyl)-1-(7-(4-fluoro-2-methylphenyl)-3-(4-(morpholinosulfonyl)phenyl)-4-oxo-3,4-dihydroquinazolin-2-yl)ethyl)acetamide] | 48 | > 1000
COc1ccc(-c2ccc3c(=O)n(-c4ccc(S(=O)(=O)N5CCOCC5)cc4)c([C@H](Cc4cc(F)cc(F)c4)NC(=O)Cn4nc(C(F)F)c5c4C(F)(F)[C@@H]4C[C@H]54)nc3c2)cn1 [Example 112, 2-((3bS,4aR)-3-(difluoromethyl)-5,5-difluoro-3b,4,4a,5-tetrahydro-1H-cyclopropa[3,4]cyclopenta[1,2-c]pyrazol-1-yl)-N-((S)-2-(3,5-difluorophenyl)-1-(7-(6-methoxypyridin-3-yl)-3-(4-(morpholinosulfonyl)phenyl)-4-oxo-3,4-dihydroquinazolin-2-yl)ethyl)acetamide] | 4 | > 1000
O=C(Cn1ccc(C2CC2)n1)N[C@@H](Cc1cc(F)cc(F)c1)c1nc2cc(-c3c(Cl)cccc3Cl)ccc2c(=O)n1-c1ccc(S(=O)(=O)N2CCOCC2)cc1 [Example 114, (S)-2-(3-cyclopropyl-1H-pyrazol-1-yl)-N-(1-(7-(2,6-dichlorophenyl)-3-(4-(morpholinosulfonyl)phenyl)-4-oxo-3,4-dihydroquinazolin-2-yl)-2-(3,5-difluorophenyl)ethyl)acetamide] | 15 | > 1000
Cc1cc(C(F)F)nn1CC(=O)N[C@@H](Cc1cc(F)cc(F)c1)c1nc2cc(-c3ccccc3F)ccc2c(=O)n1-c1ccc(Cl)c2c(NS(=O)(=O)C3CC3)nn(CC(F)F)c12 [Example 137, (S)-N-(1-(3-(4-chloro-3-(cyclopropanesulfonamido)-1-(2,2-difluoroethyl)-1H-indazol-7-yl)-7-(2-fluorophenyl)-4-oxo-3,4-dihydroquinazolin-2-yl)-2-(3,5-difluorophenyl)ethyl)-2-(3-(difluoromethyl)-5-methyl-1H-pyrazol-1-yl)acetamide] | 8.4 | > 1000
